Publication PMC6149812, “Access to New Cytotoxic Quinone-Amino Acid Conjugates Linked through A Vinylic Spacer from 2-Acylnaphthoquinones and Methyl 3-Aminocrotonate” (Molecules : A Journal of Synthetic Chemistry and Natural …, 2017)
Like-named read-outs stand apart in the source and are kept apart here.

How the values were obtained:
[1] = tested on: SK-MES-1 human lung cancer cells; experiment: MTT reduction cytotoxicity assay, 72 h drug exposure, SK-MES-1; format: cell-based; conditions: 72 h exposure, average of six determinations, read-out: IC50 ± SEM, SK-MES-1
[2] = tested on: J82 human bladder carcinoma cells; experiment: MTT reduction cytotoxicity assay, 72 h drug exposure, J82; format: cell-based; conditions: human bladder carcinoma cell line, 72 h exposure, average of six determinations, read-out: IC50 ± SEM, J82
[3] = tested on: MRC-5 normal human lung fibroblasts; experiment: cells; conditions: MRC5, 72 h, read-out: IC50 ± SEM, MRC-5
Description: (§1) Cytotoxic activities of the compounds are expressed in terms of IC50. Etoposide, a clinically used anticancer agent, was taken as a positive control.
(§2) Media were supplemented with 10% heat-inactivated fetal bovine serum (FBS), 100 IU/mL penicillin and 100 μg/mL streptomycin and cell cultures were kept in a humidified incubator with 5% CO2 in air at 37 °C. For the cytotoxicity experiments, cells were seeded into 96-well plates at a density of 50,000 cells/mL. After reaching confluence, cells were incubated for three days with compounds at varied concentrations ranging from 0 up to 100 μM while untreated cells (medium containing 1% DMSO) were used as controls. Cytotoxicity was assessed using the MTT (3-(4,5-dimethylthiazol-2-yl)-2,5-diphenyltetrazolium bromide) reduction assay. […] Values were the means of six replicates for each concentration and transformed to percentage of controls.

[4] = tested on: AGS human gastric adenocarcinoma cells; experiment: MTT reduction cytotoxicity assay, 72 h drug exposure, AGS; format: cell-based; conditions: human gastric adenocarcinoma cell line, 72 h exposure, average of six determinations, read-out: IC50 ± SEM, AGS
[5] = MTT reduction cytotoxicity assay, 72 h drug exposure, cell line panel of Table 3; format: cell-based; conditions: human, summary range over the cell lines of Table 3, 72 h exposure, read-out: cytotoxic activities, range of IC50 over Table 3
Description: Finally, HL-60 cells were grown in RPMI medium.

[6] = tested on: MRC-5 normal human lung fibroblasts; conditions: for IC50: read-out: IC50 ± SEM, MRC-5, normal human lung fibroblasts, 72 h exposure, MTT, average of six determinations
Description: as §1, §2

[7] = SK-MES-1, human lung cancer cell line

Row | melting point | Compound | IC50 [1, 7] | IC50 [2] | IC50 [3] | IC50 [4] | IC50 at 72 h [5] | IC50 ([1]; human lung cancer cell line) | IC50 [6] | cytotoxicity relative to etoposide on normal human lung fibroblasts cells [6]
1 | 215 to 217 °C | COC(=O)C1=C(C)N(CCO)C(C)(O)C2=C1C(=O)c1ccccc1C2=O (stereo not shown) [Compound 5a, Methyl 1-hydroxy-2-(2-hydroxyethyl)-1,3-dimethyl-5,10-dioxo-1,2,5,10-tetrahydrobenzo[g]isoquinoline-4-carboxylate] |  |  |  |  |  |  |  | 
2 | 236.5 to 238.5 °C | COC(=O)C1=C(C)N(CCO)C(O)(c2ccccc2)C2=C1C(=O)c1ccccc1C2=O (stereo not shown) [Compound 5b, Methyl 1-hydroxy-2-(2-hydroxyethyl)-3-methyl-5,10-dioxo-1-phenyl-1,2,5,10-tetrahydrobenzo[g] isoquinoline-4-carboxylate] |  |  |  |  |  |  |  | 
3 | 217 to 218 °C | COC(=O)/C(C1=C(C(=O)c2ccccc2)C(=O)c2ccccc2C1=O)=C(/C)N[C@@H](C)C(=O)OC [Compound 6, Methyl (S,Z)-2-(3-benzoyl-1,4-dioxo-1,4-dihydronaphthalen-2-yl)-3-[(1-methoxy-1-oxopropan-2-yl)amino]-but-2-enoate] | 47.8 ± 3.3 µM | 37.1 ± 2.2 µM | 58 ± 4.1 µM | 52.7 ± 3.7 µM | 4.5 to 53.4 µM |  |  | 
4 |  | COC(=O)/C(C1=C(C(=O)c2ccccc2)C(=O)c2ccccc2C1=O)=C(/C)N[C@H](C)C(=O)OC [Compound 7, Methyl (R,Z)-2-(3-benzoyl-1,4-dioxo-1,4-dihydronaphthalen-2-yl)-3-[(1-methoxy-1-oxopropan-2-yl)amino]-but-2-enoate] | 53.4 ± 4.3 µM | 35.6 ± 1.4 µM | 17.4 ± 0.7 µM | 20.5 ± 1.1 µM | 4.5 to 53.4 µM |  |  | 
5 | 222.5 to 224.5 °C | COC(=O)/C(C1=C(C(=O)c2ccccc2)C(=O)c2ccccc2C1=O)=C(/C)N[C@@H](CC(C)C)C(=O)OC [Compound 8, Methyl (Z)-[3-(3-benzoyl-1,4-dioxo-1,4-dihydronaphthalen-2-yl)-4-methoxy-4-oxobut-2-en-2-yl]-L-leucinate] | 34.5 ± 1.7 µM | 12.9 ± 0.9 µM | 26.6 ± 1.3 µM | 26.9 ± 1.5 µM | 4.5 to 53.4 µM |  |  | 
6 |  | CCCCCC(=O)C1=C(/C(C(=O)OC)=C(\C)N[C@@H](CC(C)C)C(=O)OC)C(=O)c2ccccc2C1=O [Compound 13, Methyl (Z)-[3-(3-hexanoyl-1,4-dioxo-1,4-dihydronaphthalen-2-yl)-4-methoxy-4-oxobut-2-en-2-yl]-L-leucinate] | 21.6 ± 1.3 µM | 23.5 ± 1.6 µM | 24.9 ± 0.7 µM | 17 ± 1.1 µM | 4.5 to 53.4 µM |  |  | 
7 |  | COc1cc([C@@H]2c3cc4c(cc3[C@@H](O[C@@H]3O[C@@H]5CO[C@@H](C)O[C@H]5[C@H](O)[C@H]3O)[C@H]3COC(=O)[C@H]23)OCO4)cc(OC)c1O [Ref., etoposide, reference compound] | 2.9 ± 0.2 µM | 3.3 ± 0.2 µM | 2.2 ± 0.1 µM | 0.4 µM |  |  |  | 
8 |  | Methyl (R,Z)-2-(3-benzoyl-1,4-dioxo-1,4-dihydronaphthalen-2-yl)-3-[(1-methoxy-1-oxo-3-phenylpropan-2-yl)amino]-but-2-enoate [Compound 10] |  | 23 ± 0.7 µM |  | 30.7 ± 1.5 µM |  | 34.2 ± 2.3 µM | 46.7 ± 2.9 µM | 
9 |  | Methyl (R,Z)-2-(3-butyryl-1,4-dioxo-1,4-dihydronaphthalen-2-yl)-3-[(1-methoxy-1-oxo-3-phenylpropan-2-yl)amino]-but-2-enoate [Compound 12] |  | 14 ± 0.6 µM |  | 12.8 ± 0.7 µM |  | 15.9 ± 0.9 µM | 21.8 ± 1.5 µM | 
10 |  | Methyl (S,Z)-2-(3-benzoyl-1,4-dioxo-1,4-dihydronaphthalen-2-yl)-3-[(1-methoxy-1-oxo-3-phenylpropan-2-yl)amino]-but-2-enoate [Compound 9] |  | 22 ± 1.1 µM |  | 19.3 ± 1.5 µM |  | 39.3 ± 1.6 µM | 33.3 ± 2.2 µM | 
11 |  | Methyl (S,Z)-3-[(3-(1H-indol-3-yl)-1-methoxy-1-oxopropan-2-yl)amino]-2-(3-benzoyl-1,4-dioxo-1,4-dihydronaphthalen-2-yl)-but-2-enoate [Compound 11] |  | 21.4 ± 0.8 µM |  | 10.1 ± 0.1 µM |  | 18.9 ± 0.5 µM | 13 ± 0.8 µM | 
12 |  | Methyl (S,Z)-3-[(3-(1H-indol-3-yl)-1-methoxy-1-oxopropan-2-yl)amino]-2-(3-hexanoyl-1,4-dioxo-1,4-dihydronaphthalen-2-yl)but-2-enoate [Compound 14] |  | 4.5 ± 0.2 µM |  | 9.3 ± 0.6 µM |  | 5.5 ± 0.2 µM | 22.1 ± 1.6 µM | ten times lower
